# Measurements from patent US11267811B2, “Small molecule inhibitors of galectin-3” (BRISTOL-MYERS SQUIBB COMPANY, priority 2017, dated 2022).
# Target: His-tagged recombinant human Gal-3 (hGal-3) (Homo sapiens (Human), UniProt P17931)
# Experiment: Gal-3 HTRF assay (His-tagged hGal-3 binding to B-ASF);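 also: compounds preincubated 30 min with hGal-3, then 1 h with B-ASF, detection via terbium anti-His antibody and streptavidin d2. Control with B-ASF counts as full signal, omitting B-ASF as background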
# Conditions: HTRF, hGal-3 15 nM, B-ASF 15 nM; read-out: hGal-3 IC50
# Chain of His-tagged recombinant human Gal-3 (hGal-3) (P17931 whole entry): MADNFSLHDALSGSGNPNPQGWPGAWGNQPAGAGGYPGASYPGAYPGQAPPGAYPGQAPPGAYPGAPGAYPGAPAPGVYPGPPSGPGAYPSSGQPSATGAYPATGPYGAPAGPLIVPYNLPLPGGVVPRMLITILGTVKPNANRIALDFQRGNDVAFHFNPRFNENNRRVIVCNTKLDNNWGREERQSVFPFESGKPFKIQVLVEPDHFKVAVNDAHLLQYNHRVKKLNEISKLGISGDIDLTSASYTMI
row,SMILES,IC50
1,"Cc1nc2ccc(-n3nc(C(F)(F)F)nc3[C@@H]3O[C@H](CO)[C@H](O)[C@H](n4cc(-c5cc(F)c(F)c(F)c5)nn4)[C@H]3O)cc2s1 [Example A4, (2R,3R,4R,5R,6S)-2-(Hydroxymethyl)-6-(1-(2-methylbenzo[d]thiazol-6-yl)-3-(trifluoromethyl)-1H-1,2,4-triazol-5-yl)-4-(4-(3,4,5-trifluorophenyl)-1H-1,2,3-triazol-1-yl)tetrahydro-2H-pyran-3,5-diol]",58 nM
2,"CO[C@@H]1[C@@H](n2cc(-c3cc(F)c(Cl)c(F)c3)nn2)[C@@H](O)[C@@H](CO)O[C@H]1c1nc(C)nn1-c1ccc2ncsc2c1 [Example A5, (2R,3R,4S,5R,6S)-6-(1-(Benzo[d]thiazol-6-yl)-3-methyl-1H-1,2,4-triazol-5-yl)-4-(4-(4-chloro-3,5-difluorophenyl)-1H-1,2,3-triazol-1-yl)-2-(hydroxymethyl)-5-methoxytetrahydro-2H-pyran-3-ol]",20 nM

# Same assay, conditions: read-out: hGal IC50
row,SMILES,IC50
1,OC[C@H]1O[C@@H](c2ncnn2-c2cc(Cl)ccc2C(F)(F)F)[C@H](O)[C@@H](n2cc(-c3cc(F)c(F)c(F)c3)nn2)[C@H]1O [Example A7],27 nM
2,Cc1nc([C@@H]2O[C@H](CO)[C@H](O)[C@H](n3cc(-c4cc(F)c(F)c(F)c4)nn3)[C@H]2O)n(-c2ccc3nc(C(F)(F)F)sc3c2)n1 [Example A8],505 nM
3,Cc1nc([C@@H]2O[C@H](CO)[C@H](O)[C@H](n3cc(-c4ccc(Cl)c(F)c4)nn3)[C@H]2O)n(-c2ccc3nc(C(F)(F)F)sc3c2)n1 [Example A9],837 nM
4,Cc1nc([C@@H]2O[C@H](CO)[C@H](O)[C@H](n3cc(-c4cc(F)c(Cl)c(F)c4)nn3)[C@H]2O)n(-c2cc(Cl)cnc2C(F)(F)F)n1 [Example A10],29 nM
5,Cc1nc([C@@H]2O[C@H](CO)[C@H](O)[C@H](n3cc(-c4cc(F)c(Cl)c(F)c4)nn3)[C@H]2O)n(-c2cc(Cl)cc3cccnc23)n1 [Example A11],17 nM
6,Cc1nc([C@@H]2O[C@H](CO)[C@H](O)[C@H](n3cc(-c4ccc(Br)c(F)c4)nn3)[C@H]2O)n(-c2cc(Cl)cc3cccnc23)n1 [Example A12],46 nM
7,Cc1nc([C@@H]2O[C@H](CO)[C@H](O)[C@H](n3cc(-c4cc(F)c(Cl)c(F)c4)nn3)[C@H]2O)n(-c2cc(Cl)ccc2Br)n1 [Example A13],22 nM
8,Cc1nc([C@@H]2O[C@H](CO)[C@H](O)[C@H](n3cc(-c4cc(F)c(Br)c(F)c4)nn3)[C@H]2O)n(-c2cc(Cl)cc3cccnc23)n1 [Example A14],24 nM
9,Cc1nc([C@@H]2O[C@H](CO)[C@H](O)[C@H](n3cc(-c4ccc(Cl)c(F)c4)nn3)[C@H]2O)n(-c2cc(Cl)ccc2Br)n1 [Example A15],40 nM
10,Cc1nc([C@@H]2O[C@H](CO)[C@H](O)[C@H](n3cc(-c4cc(F)c(Cl)c(F)c4)nn3)[C@H]2O)n(-c2cc(Cl)cc3ncccc23)n1 [Example A16],51 nM
11,Cc1nc([C@@H]2O[C@H](CO)[C@H](O)[C@H](n3cc(-c4ccc(Br)c(F)c4)nn3)[C@H]2O)n(-c2cc(Cl)cc3ncccc23)n1 [Example A17],82 nM
12,Cc1nc([C@@H]2O[C@H](CO)[C@H](O)[C@H](n3cc(-c4ccc(Cl)c(F)c4)nn3)[C@H]2O)n(-c2cc(Cl)ccc2OC(F)(F)F)n1 [Example A20],31 nM
13,Cc1nc([C@@H]2O[C@H](CO)[C@H](O)[C@H](n3cc(-c4ccc(Br)c(F)c4)nn3)[C@H]2O)n(-c2ccc3ncsc3c2)n1 [Example A22],22 nM
14,Cc1nc([C@@H]2O[C@H](CO)[C@H](O)[C@H](n3cc(-c4cc(F)c(Cl)c(Cl)c4)nn3)[C@H]2O)n(-c2ccc3ncsc3c2)n1 [Example A24],34 nM
15,Cc1nc([C@@H]2O[C@H](CO)[C@H](O)[C@H](n3cc(-c4cc(F)c(Cl)c(Cl)c4)nn3)[C@H]2O)n(-c2ccc3nc(C)sc3c2)n1 [Example A25],45 nM
16,Cc1nc([C@@H]2O[C@H](CO)[C@H](O)[C@H](n3cc(-c4cc(F)c(Cl)c(Cl)c4)nn3)[C@H]2O)n(-c2cc(Cl)ccc2OC(F)(F)F)n1 [Example A26],36 nM
17,Cc1nc([C@@H]2O[C@H](CO)[C@H](O)[C@H](n3cc(-c4cc(F)c(Br)c(F)c4)nn3)[C@H]2O)n(-c2ccc3ncsc3c2)n1 [Example A29],27 nM
18,Cc1nc([C@@H]2O[C@H](CO)[C@H](O)[C@H](n3cc(-c4cc(F)c(Cl)c(F)c4)nn3)[C@H]2O)n(-c2cc3sc(C)nc3cc2C(F)(F)F)n1 [Example A30],17 nM
19,Cc1nc([C@@H]2O[C@H](CO)[C@H](O)[C@H](n3cc(-c4ccc(Br)c(F)c4)nn3)[C@H]2O)n(-c2cc3sc(C)nc3cc2C(F)(F)F)n1 [Example A31],22 nM
20,Cc1nc([C@@H]2O[C@H](CO)[C@H](O)[C@H](n3cc(-c4cc(F)c(Br)c(F)c4)nn3)[C@H]2O)n(-c2ccc3nc(C)sc3c2)n1 [Example A32],41 nM
21,Cc1nc([C@@H]2O[C@H](CO)[C@H](O)[C@H](n3cc(-c4cc(F)c(Br)c(F)c4)nn3)[C@H]2O)n(-c2cc3sc(C)nc3cc2C(F)(F)F)n1 [Example A33],103 nM
22,Cc1nc([C@@H]2O[C@H](CO)[C@H](O)[C@H](n3cc(-c4cc(F)c(Cl)c(F)c4)nn3)[C@H]2O)n(-c2cc(Cl)ccc2C2CC2)n1 [Example A34],46 nM
23,Cc1nc([C@@H]2O[C@H](CO)[C@H](O)[C@H](n3cc(-c4cc(F)c(Br)c(F)c4)nn3)[C@H]2O)n(-c2cc(Cl)ccc2C2CC2)n1 [Example A35],151 nM
24,Cc1nc([C@@H]2O[C@H](CO)[C@H](O)[C@H](n3cc(-c4cc(F)c(Cl)c(F)c4)nn3)[C@H]2O)n(-c2ccc3nc(C)sc3c2)n1 [Example A36],53 nM

row,SMILES,IC50
1,Cc1nc([C@@H]2O[C@H](CO)[C@H](O)[C@H](n3cc(-c4cc(F)c(Cl)c(F)c4)nn3)[C@H]2O)n(-c2cc(Cl)cc3ccncc23)n1 [Example A37],51 nM
2,Cc1nc([C@@H]2O[C@H](CO)[C@H](O)[C@H](n3cc(-c4ccc(Br)c(F)c4)nn3)[C@H]2O)n(-c2cc(Cl)ccc2C2CC2)n1 [Example A38],72 nM
3,Cc1nc([C@@H]2O[C@H](CO)[C@H](O)[C@H](n3cc(-c4ccc(Br)c(F)c4)nn3)[C@H]2O)n(-c2cc(Cl)cc3ccncc23)n1 [Example A39],161 nM
4,Cc1nc([C@@H]2O[C@H](CO)[C@H](O)[C@H](n3cc(-c4cc(F)c(Cl)c(F)c4)nn3)[C@H]2O)n(-c2cc(CC(F)(F)F)ccc2Cl)n1 [Example A40],126 nM
5,Cc1nc([C@@H]2O[C@H](CO)[C@H](O)[C@H](n3cc(-c4ccc(Cl)c(F)c4)nn3)[C@H]2O)n(-c2cc(Cl)ccc2C2CC2)n1 [Example A41],59 nM
6,Cc1nc([C@@H]2O[C@H](CO)[C@H](O)[C@H](n3cc(-c4cc(F)c(Cl)c(F)c4)nn3)[C@H]2O)n(-c2cc(Cl)ccc2C(C)(C)C)n1 [Example A42],11 nM
7,Cc1nc([C@@H]2O[C@H](CO)[C@H](O)[C@H](n3cc(-c4cc(F)c(Cl)c(F)c4)nn3)[C@H]2O)n(-c2cc(C(F)F)ccc2Cl)n1 [Example A43],50 nM
8,Cc1nc([C@@H]2O[C@H](CO)[C@H](O)[C@H](n3cc(-c4ccc(Cl)c(F)c4F)nn3)[C@H]2O)n(-c2cc(Cl)ccc2C2CC2)n1 [Example A44],140 nM
9,Cc1nc([C@@H]2O[C@H](CO)[C@H](O)[C@H](n3cc(-c4cc(F)c(Cl)c(F)c4)nn3)[C@H]2O)n(-c2cc(Cl)c(F)cc2Cl)n1 [Example A46],33 nM
10,Cc1nc([C@@H]2O[C@H](CO)[C@H](O)[C@H](n3cc(-c4ccc(Cl)c(F)c4)nn3)[C@H]2O)n(-c2cc(Cl)c(F)cc2Cl)n1 [Example A47],54 nM
11,Cc1nc([C@@H]2O[C@H](CO)[C@H](O)[C@H](n3cc(-c4ccc(Cl)c(F)c4)nn3)[C@H]2O)n(-c2cc(Cl)cc(F)c2Cl)n1 [Example A48],47 nM
12,Cc1nc([C@@H]2O[C@H](CO)[C@H](O)[C@H](n3cc(-c4cc(F)c(Cl)c(F)c4)nn3)[C@H]2O)n(-c2cc(Cl)cc(F)c2Cl)n1 [Example A49],46 nM
13,Cc1nc([C@@H]2O[C@H](CO)[C@H](O)[C@H](n3cc(-c4ccc(F)c(Cl)c4)nn3)[C@H]2O)n(-c2cc(Cl)ccc2C(F)(F)F)n1 [Example A50],52 nM
14,Cc1nc([C@@H]2O[C@H](CO)[C@H](O)[C@H](n3cc(-c4ccc(Cl)cc4F)nn3)[C@H]2O)n(-c2cc(Cl)ccc2C(F)(F)F)n1 [Example A52],52 nM
15,Cc1nc([C@@H]2O[C@H](CO)[C@H](O)[C@H](n3cc(-c4cc(F)c(Cl)c(F)c4)nn3)[C@H]2O)n(-c2cc(Cl)c(Cl)cc2Cl)n1 [Example A53],58 nM
16,Cc1nc([C@@H]2O[C@H](CO)[C@H](O)[C@H](n3cc(-c4cc(F)c(Cl)c(Cl)c4)nn3)[C@H]2O)n(-c2cc(Cl)ccc2Cl)n1 [Example A54],48 nM
17,Cc1nc([C@@H]2O[C@H](CO)[C@H](O)[C@H](n3cc(-c4cc(F)c(Cl)c(Cl)c4)nn3)[C@H]2O)n(-c2cc(Cl)ccc2C(F)(F)F)n1 [Example A55],20 nM
18,Cc1nc([C@@H]2O[C@H](CO)[C@H](O)[C@H](n3cc(-c4ncc(Cl)cc4F)nn3)[C@H]2O)n(-c2cc(Cl)ccc2C(F)(F)F)n1 [Example A59],158 nM
19,Cc1nc([C@@H]2O[C@H](CO)[C@H](O)[C@H](n3cc(-c4cc(F)c(Cl)c(F)c4)nn3)[C@H]2O)n(-c2cc(Cl)ccc2C(F)F)n1 [Example A60],36 nM
20,Cc1nc([C@@H]2O[C@H](CO)[C@H](O)[C@H](n3cc(-c4ccc(Br)c(F)c4)nn3)[C@H]2O)n(-c2cc(Cl)ccc2C(F)F)n1 [Example A61],49 nM
21,Cc1nc([C@@H]2O[C@H](CO)[C@H](O)[C@H](n3cc(-c4ncc(Cl)cc4Cl)nn3)[C@H]2O)n(-c2cc(Cl)ccc2C(F)(F)F)n1 [Example A62],172 nM
22,Cc1nc([C@@H]2O[C@H](CO)[C@H](O)[C@H](n3cc(-c4ccc5ncsc5c4)nn3)[C@H]2O)n(-c2cc(Cl)ccc2C(F)(F)F)n1 [Example A63],291 nM
23,COc1ccc(C(F)(F)F)c(-n2nc(C)nc2[C@@H]2O[C@H](CO)[C@H](O)[C@H](n3cc(-c4cc(F)c(Cl)c(F)c4)nn3)[C@H]2O)c1 [Example A64],42 nM
24,Cc1nc([C@@H]2O[C@H](CO)[C@H](O)[C@H](n3cc(-c4ccc5scnc5c4)nn3)[C@H]2O)n(-c2cc(Cl)ccc2C(F)(F)F)n1 [Example A65],87 nM
